Experiments:
NEP enzyme = molecular target: T1, NEP enzyme (Homo sapiens, UniProt P08473); assay: In vitro enzyme inhibition assay at NEP; type: biochemical; settings: fluorogenic peptide substrate; human or rat NEP not given; read-out: pIC50 for the NEP enzyme (converted)
T1 construct: purchased R&D Systems, Minneapolis, Minn; 1182-ZN
Protocol: The inhibitory activities of compounds at human and rat NEP and human ACE were determined using in vitro assays as described below.
Rat NEP was prepared from the kidneys of adult Sprague Dawley rats. Whole kidneys were washed in cold PBS and brought up in ice-cold lysis buffer (1% Triton X-114, 150 mM NaCl, 50 mM Tris pH 7.5; Bordier (1981) J. Biol. Chem. 256:1604-1607) in a ratio of 5 mL of buffer for every gram of kidney. Samples were homogenized using a polytron hand held tissue grinder on ice. Homogenates were centrifuged at 1000×g in a swinging bucket rotor for 5 minutes at 3° C. The pellet was resuspended in 20 mL of ice cold lysis buffer and incubated on ice for 30 minutes. […] Protein concentrations were quantitated using a BCA detection system with BSA as a standard. […]
The assays were performed in 384-well white opaque plates at room temperature using the respective fluorogenic peptides at a concentration of 10 μM in assay buffer (50 mM Tris/HCl at 25° C., 100 mM NaCl, 0.01% Tween-20, 1 μM Zn, 0.025% BSA). […] The rat NEP enzyme preparation was used at a concentration that yielded quantitative proteolysis of 3 μM of Mca-RRL within 20 minutes at room temperature.
Assays were started by adding 25 μL of enzyme to 12.5 μL of test compound at 12 concentrations (10 μM to 20 pM). […] Plates were read on a fluorometer with excitation and emission wavelengths set to 320 nm and 405 nm, respectively. […]

human AT1 receptor = molecular target: T2, human AT1 receptor (Homo sapiens, UniProt P30556); assay: AT1 radioligand binding assay; settings: displacement of [Eu]AngII at 2 nM, membranes of CHO-K1 cells expressing human AT1 receptor; read-out: pKi at the AT1 receptor (converted)
T2 construct: expressed in transfected cells; membrane preparation
T2 sequence (P30556 1-359): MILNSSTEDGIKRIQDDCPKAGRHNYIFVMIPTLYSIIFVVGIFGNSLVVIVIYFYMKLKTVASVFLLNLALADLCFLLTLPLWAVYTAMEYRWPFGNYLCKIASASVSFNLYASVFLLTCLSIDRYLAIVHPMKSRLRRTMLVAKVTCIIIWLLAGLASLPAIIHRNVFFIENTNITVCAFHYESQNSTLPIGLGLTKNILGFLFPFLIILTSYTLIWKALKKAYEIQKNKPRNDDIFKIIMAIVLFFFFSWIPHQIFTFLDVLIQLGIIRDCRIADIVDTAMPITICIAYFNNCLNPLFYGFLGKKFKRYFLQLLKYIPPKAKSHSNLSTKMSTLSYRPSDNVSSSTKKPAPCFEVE
Protocol: These in vitro assays were used to assess the ability of test compounds to bind to the AT1 and the AT2 receptors.
Chinese hamster ovary (CHO-K1) derived cell lines stably expressing the cloned human AT1 or AT2 receptors, respectively, were grown in HAM's-F12 medium supplemented with 10% fetal bovine serum, 10 μg/ml penicillin/streptomycin, and 500 μg/ml geneticin in a 5% CO2 humidified incubator at 37° C. AT2 receptor expressing cells were grown in the additional presence of 100 nM PD123,319 (AT2 antagonist). When cultures reached 80-95% confluence, the cells were washed thoroughly in PBS and lifted with 5 mM EDTA. Cells were pelleted by centrifugation and snap frozen in MeOH-dry ice and stored at −80° C. until further use.
For membrane preparation, cell pellets were resuspended in lysis buffer (25 mM Tris/HCl pH 7.5 at 4° C., 1 mM EDTA, and one tablet of Complete Protease Inhibitor Cocktail Tablets with 2 mM EDTA per 50 mL buffer (Roche cat. #1697498, Roche Molecular Biochemicals, Indianapolis, Ind.)) and homogenized using a tight-fitting Dounce glass homogenizer (10 strokes) on ice. The homogenate was centrifuged at 1000×g, the supernatant was collected and centrifuged at 20,000×g. […] Protein concentration of the membrane suspension was determined by the method described in Bradford (1976) Anal Biochem. 72:248-54. […]

T1 sequence (P08473 52-750 limits assumed): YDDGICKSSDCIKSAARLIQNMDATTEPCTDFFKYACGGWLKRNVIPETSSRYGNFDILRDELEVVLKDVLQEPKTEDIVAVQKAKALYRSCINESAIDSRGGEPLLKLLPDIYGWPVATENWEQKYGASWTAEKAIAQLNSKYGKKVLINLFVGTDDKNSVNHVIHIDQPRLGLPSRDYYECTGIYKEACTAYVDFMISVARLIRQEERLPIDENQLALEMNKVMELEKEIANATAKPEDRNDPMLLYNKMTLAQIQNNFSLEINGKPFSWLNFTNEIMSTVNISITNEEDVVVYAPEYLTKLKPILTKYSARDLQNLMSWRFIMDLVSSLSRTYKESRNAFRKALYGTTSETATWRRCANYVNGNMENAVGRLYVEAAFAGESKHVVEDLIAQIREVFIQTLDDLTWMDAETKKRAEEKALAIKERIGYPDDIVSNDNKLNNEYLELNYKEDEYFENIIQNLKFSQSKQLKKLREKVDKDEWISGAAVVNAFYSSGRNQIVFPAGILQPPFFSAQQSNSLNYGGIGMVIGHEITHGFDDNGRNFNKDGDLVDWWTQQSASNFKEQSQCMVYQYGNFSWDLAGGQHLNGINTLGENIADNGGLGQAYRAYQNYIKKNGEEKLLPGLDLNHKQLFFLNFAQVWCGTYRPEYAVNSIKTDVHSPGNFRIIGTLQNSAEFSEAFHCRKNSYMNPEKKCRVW

`CCCCCN(Cc1ccc(-c2ccccc2-c2nnn[nH]2)cc1)C(=O)[C@H](CC(=O)O)NC(=O)C(CS)CC(C)C` (stereo partly drawn) [Example 1, (S)-3-(2-Mercaptomethyl-4-methylpentanoylamino)-N-pentyl-N-[2′1-(1H-tetrazol-5-yl)biphenyl-4-ylmethyl]succinamic Acid] was tested. Which IC50 (NEP enzyme) did it give?
Its IC50 is ≤ 0.1 µM.

And the Ki (human AT1 receptor)?
Its Ki is < 0.01 µM.

With `CCCCCN(Cc1ccc(-c2ccccc2-c2nnn[nH]2)cc1)C(=O)N1C[C@@H](NC(=O)C(CC(C)C)C(=O)NO)C[C@H]1C(=O)O` (stereo partly drawn) [Example 2, (2S,4S)-4-(2-Hydroxycarbamoyl-4-methylpentanoylamino)-1-{pentyl[2′-(1H-tetrazol-5-yl)biphenyl-4-ylmethyl]carbamoyl}pyrrolidine-2-carboxylic Acid] as the molecule, how does the IC50 (NEP enzyme) read?
Its IC50 is ≤ 0.1 µM.

What about the Ki (human AT1 receptor) of the same molecule?
Its Ki is < 0.01 µM.

Reference: patent US8236839B2, “Dual-acting antihypertensive agents” (Theravance, Inc., priority 2007, dated 2012)
